Data taken from US20250376473A1, “PRMTS INHIBITOR AND USE THEREOF” (Cytosinlab Therapeutics Co., Ltd., priority 2022, published 2025).
Where two headings read alike, the source gives them in different places.

Columns and labels:
[1] = tested on: HCT116 MTAP WT cells; assay: Proliferation inhibition of HCT116 cells in vitro (CellTiter Glo); assay type: cell-based; details: 6 days, 9 concentrations starting from 30 μM, read-out: Cell proliferation inhibition rate HCT116 MTAP WT IC50 (nm)
Description: (§1) Biological Test Example 2 Proliferation Inhibition of HCT116 and HCT116 MTAP-KO Cells in Vitro
(§2) HCT116 cell line was purchased from the Chinese Academy of Sciences Cell Bank, and the MTAP gene was knocked out by CRISPR/Cas9 technology to obtain HCT116-MTAP-KO cell line.
(§3) McCoy's 5A medium (Gibco, catalog No. 16600082), fetal bovine serum (Gibco, catalog No. 10099141C), penicillin-streptomycin double antibody (Gibco, catalog No. 15140122), pancreatic enzyme (Gibco, catalog No. 25200056), CellTiter Glo assay kit (Promega, catalog No. G7572), 384-well transparent flat-bottomed black walled cell culture plate (Corning, catalog No. 3764), ultra micro sampler (Tecan, catalog No.D300e), Multimode reader (Biotek, catalog No. SynergyHTX)
(§4) 1. Cell culture: HCT116 and HCT116-MTAP-KO cells were cultured in McCoy'5A medium+10% fetal bovine serum+1% penicillin-streptomycin double antibody; to ensure that they were always in the logarithmic growth phase and the cell viability greater than 95%.
(§5) 2. Compound concentration gradient preparation: The compound to be tested was added to a 384-well plate using an ultra micro sampler, starting from 30 μM (HCT116 cells) or 3 μM (HCT116-MTAP-KO cells), and diluted with DMSO at 3 times for a total of 9 concentrations and set up three duplicate wells.
(§6) 3. Treatment of cells with compounds: Trypsin-digested HCT116 or HCT116-MTAP-KO cell suspension was added to the 384-well plates spotted with the compounds to be tested at 40 μL per well, i.e., 100 cells per well, and the final concentration of DMSO was 0.4%. The cell culture plate was incubated at 37° C. in a 5% CO2 incubator for 6 days.
(§7) 4. Detection: 20 μL of CellTiter Glo reagent was added to each well of the cell culture plate and incubated at room temperature for 30 minutes. A multimode reader was used to detect the luminescence signal at […].
(§8) The data was fitted with GraphPad Prism 8.0 software using a four parameter inhibitor-reaction model to obtain the IC50 value (half inhibitory concentration) of the test compounds.

[2] = tested on: HCT116-MTAP-KO cells (HCT116 MTAP null); assay: Proliferation inhibition of HCT116 MTAP-KO cells in vitro (CellTiter Glo); assay type: cell-based; details: 6 days, 9 concentrations starting from 3 μM, read-out: Cell proliferation inhibition rate HCT116 MTAP null IC50 (nm)
Description: as §1, §2, §3, §4, §5, §6, §7, §8

SMILES	IC50 ([1]; Homo sapiens, HCT-116, 144 h) [nM]	IC50 ([2]; HCT116-MTAP null, 144 h) [nM]	IC50 [1] [nM]	IC50 [2] [nM]
CCN(Cc1ccc(C(F)(F)F)nn1)C(=O)c1cc2c(cc1F)nc(N)c1cnc(C)n12 [Example 81]	1000 to 10000	100 to 1000	–	–
Cc1ncc2c(N)nc3cc(F)c(C(=O)N(Cc4ccc(C(F)(F)F)cn4)c4cnn(C)n4)cc3n12 [Example 83]	1000 to 10000	< 100	–	–
CCN(Cc1ccc(OC2CC2)cn1)C(=O)c1cc2c(cc1F)nc(N)c1cnc(C)n12 [Example 85]	1000 to 10000	< 100	–	–
Cc1ncc2c(N)nc3cc(F)c(C(=O)N4C(C)COCC4c4ccc(OC5CC5)cc4)cc3n12 (centres unmarked) [Example 87]	1000 to 10000	< 100	–	–
Cc1ncc2c(N)nc3cc(F)c(C(=O)N(Cc4ccc(C(F)(F)F)cn4)c4cn[nH]c4)cc3n12 [Example 88]	1000 to 10000	100 to 1000	–	–
Cc1ncc2c(N)nc3cc(F)c(C(=O)N4C(C)COCC4c4cnc(C(F)(F)F)s4)cc3n12 (centres unmarked) [Example 89]	1000 to 10000	< 100	–	–
Cc1ncc2c(N)nc3cc(F)c(C(=O)N(Cc4ccc(C(F)(F)F)cn4)c4cnn(C)c4)cc3n12 [Example 90]	1000 to 10000	< 100	–	–
CCOc1ccc(CN(CC)C(=O)c2cc3c(cc2F)nc(N)c2c(C)ncn23)nn1 [Example 95]	–	–	1000 to 10000	100 to 1000
CCN(Cc1ccc(OC2COC2)cn1)C(=O)c1cc2c(cc1F)nc(N)c1cnc(C)n12 [Example 99]	1000 to 10000	100 to 1000	–	–
Cc1ncn2c1c(N)nc1cc(F)c(C(=O)N3C(C)COCC3c3ccc(C(F)F)cn3)cc12 (centres unmarked) [Example 101]	–	–	100 to 1000	< 100
CCOc1ccc(CN(CC)C(=O)c2cc3c(cc2F)nc(N)c2cnc(C)n23)nn1 [Example 102]	1000 to 10000	< 100	–	–
CCOCCc1ccc(C2COCC(C)N2C(=O)c2cc3c(cc2F)nc(N)c2c(C)ncn23)nc1 (centres unmarked) [Example 103]	1000 to 10000	< 100	–	–
COCCOc1ccc(C2COCC(C)N2C(=O)c2cc3c(cc2F)nc(N)c2c(C)ncn23)nc1 (centres unmarked) [Example 105]	1000 to 10000	< 100	–	–
Cc1ncn2c1c(N)nc1cc(F)c(C(=O)N3C(c4ccc(C#N)cn4)COC[C@H]3C)cc12 (some centres unmarked) [Example 108]	1000 to 10000	< 100	–	–
Cc1nn(C)cc1N(Cc1ccc(C(F)(F)F)cn1)C(=O)c1cc2c(cc1F)nc(N)c1cnc(C)n12 [Example 109]	1000 to 10000	< 100	–	–
Cc1ncc2c(N)nc3cc(F)c(C(=O)N4C(c5ccc(C(F)F)cn5)COC[C@H]4C)cc3n12 (some centres unmarked) [Example 110]	100 to 1000	< 100	–	–
Cc1ncn2c1c(N)nc1cc(F)c(C(=O)N3C(C)COCC3c3ccc(C4CCOCC4)cn3)cc12 (centres unmarked) [Example 112]	1000 to 10000	< 100	–	–
Cc1ncc2c(N)nc3cc(F)c(C(=O)N(Cc4ccc(C(F)(F)F)cn4)c4ncn(C)n4)cc3n12 [Example 115]	1000 to 10000	100 to 1000	–	–
Cc1ncc2c(N)nc3cc(F)c(C(=O)N(Cc4ccc(OCC(F)(F)F)cn4)c4cnn(C)c4)cc3n12 [Example 116]	1000 to 10000	100 to 1000	–	–
Cc1ncc2c(N)nc3cc(F)c(C(=O)N(Cc4ccc(C(F)(F)F)cn4)c4ccn(CCO)n4)cc3n12 [Example 117]	1000 to 10000	100 to 1000	–	–
Cc1c(N(Cc2ccc(C(F)(F)F)cn2)C(=O)c2cc3c(cc2F)nc(N)c2cnc(C)n23)cnn1C [Example 118]	1000 to 10000	< 100	–	–
Cc1ncc2c(N)nc3cc(F)c(C(=O)N(Cc4ccc(C(F)(F)F)nn4)c4cnn(C)c4)cc3n12 [Example 119]	1000 to 10000	100 to 1000	–	–
Cc1ncc2c(N)nc3cc(F)c(C(=O)N(Cc4ncc(C(F)(F)F)cc4F)c4cnn(C)c4)cc3n12 [Example 120]	1000 to 10000	< 100	–	–
Cc1ncn2c1c(N)nc1cc(F)c(C(=O)N(c3cnn(C)c3)C3COc4ccccc43)cc12 (centres unmarked) [Example 121]	–	–	1000 to 10000	< 100
COc1cc(N(Cc2ccc(C(F)(F)F)cn2)C(=O)c2cc3c(cc2F)nc(N)c2cnc(C)n23)nn1C [Example 122]	1000 to 10000	100 to 1000	–	–

SMILES	IC50 ([1]; Homo sapiens, HCT-116, 144 h) [nM]	IC50 ([2]; HCT116-MTAP null, 144 h) [nM]	IC50 [1] [nM]	IC50 [2] [nM]
COc1ccc(N(Cc2ccc(C(F)(F)F)cn2)C(=O)c2cc3c(cc2F)nc(N)c2cnc(C)n23)cn1 [Example 124]	1000 to 10000	< 100	–	–
Cc1ncc2c(N)nc3cc(F)c(C(=O)N(c4cnn(C)c4)C4COc5ccccc54)cc3n12 (centres unmarked) [Example 125]	–	–	1000 to 10000	< 100
Cc1nn(C)cc1N(Cc1ccc(C(F)(F)F)nn1)C(=O)c1cc2c(cc1F)nc(N)c1cnc(C)n12 [Example 127]	1000 to 10000	100 to 1000	–	–
CCn1cc(N(Cc2ccc(C(F)(F)F)cn2)C(=O)c2cc3c(cc2F)nc(N)c2cnc(C)n23)c(C)n1 [Example 129]	1000 to 10000	< 100	–	–
COc1ccc(CN(C(=O)c2cc3c(cc2F)nc(N)c2cnc(C)n23)c2cn(C)nc2C)nn1 [Example 131]	1000 to 10000	< 100	–	–
Cc1ncc2c(N)nc3cc(F)c(C(=O)N(Cc4ccc(C(F)(F)F)cn4)c4cn(C)nc4CO)cc3n12 [Example 133]	1000 to 10000	100 to 1000	–	–
Cc1nn(C)cc1N(Cc1ccc(C(F)(F)F)cn1)C(=O)c1cc2c(cc1F)nc(N)c1c(C)ncn12 [Example 134]	< 100	< 100	–	–
CCOc1ccc(CN(C(=O)c2cc3c(cc2F)nc(N)c2cnc(C)n23)c2cn(C)nc2C)nc1 [Example 136]	1000 to 10000	< 100	–	–
COc1nn(C)cc1N(Cc1ccc(C(F)(F)F)cn1)C(=O)c1cc2c(cc1F)nc(N)c1cnc(C)n12 [Example 138]	1000 to 10000	< 100	–	–
Cc1ccc(N(Cc2ccc(C(F)(F)F)cn2)C(=O)c2cc3c(cc2F)nc(N)c2cnc(C)n23)cn1 [Example 139]	1000 to 10000	< 100	–	–
Cc1nn(C)cc1N(Cc1ncc(C(F)(F)F)cn1)C(=O)c1cc2c(cc1F)nc(N)c1cnc(C)n12 [Example 140]	1000 to 10000	100 to 1000	–	–
Cc1ncccc1N(Cc1ccc(C(F)(F)F)cn1)C(=O)c1cc2c(cc1F)nc(N)c1cnc(C)n12 [Example 143, 4-Amino-7-fluoro-1-methyl-N-(2-methylpyridin-3-yl)-N-(5-(trifluoromethyl)pyridin-2-ylmethyl)imidazolo[1,5-a]quinoxalin-8-carboxamide]	100 to 1000	< 100	–	–
Cc1nn(C)cc1N(Cc1ccc(OC2CC2)cn1)C(=O)c1cc2c(cc1F)nc(N)c1cnc(C)n12 [Example 144]	1000 to 10000	< 100	–	–
COc1ncccc1N(Cc1ccc(C(F)(F)F)cn1)C(=O)c1cc2c(cc1F)nc(N)c1cnc(C)n12 [Example 145]	100 to 1000	< 100	–	–
COc1ccc(N(Cc2ccc(OC3CC3)cn2)C(=O)c2cc3c(cc2F)nc(N)c2cnc(C)n23)cn1 [Example 146]	1000 to 10000	< 100	–	–
COc1ncc(N(Cc2ccc(C(F)(F)F)cn2)C(=O)c2cc3c(cc2F)nc(N)c2cnc(C)n23)cn1 [Example 148]	1000 to 10000	100 to 1000	–	–
Cc1ncc2c(N)nc3cc(F)c(C(=O)N(Cc4ccc(C(F)(F)F)cn4)C4CCOCC4)cc3n12 [Example 149]	1000 to 10000	100 to 1000	–	–
CCn1cc(N(Cc2ccc(C(F)(F)F)cn2)C(=O)c2cc3c(cc2F)nc(N)c2c(C)ncn23)c(C)n1 [Example 150]	100 to 1000	< 100	–	–
Cc1[nH]ncc1N(Cc1ccc(C(F)(F)F)cn1)C(=O)c1cc2c(cc1F)nc(N)c1cnc(C)n12 [Example 151]	1000 to 10000	100 to 1000	–	–
COCCOc1ccc(CN(C(=O)c2cc3c(cc2F)nc(N)c2cnc(C)n23)c2cn(C)nc2C)nc1 [Example 152]	1000 to 10000	100 to 1000	–	–
Cc1ncn2c1c(N)nc1cc(F)c(C(=O)N3[C@H](C)COC[C@@H]3c3ccc(C(F)(F)F)cn3)cc12 [Example 153]	100 to 1000	< 100	–	–
Cc1ncn2c1c(N)nc1cc(F)c(C(=O)N3C(C)COCC3c3ccc(C(F)(F)F)cn3)cc12 (centres unmarked) [Example 155]	–	–	1000 to 10000	< 100
Cc1ncc2c(N)nc3cc(F)c(C(=O)N(Cc4ccc(C(F)(F)F)cn4)C4CCOC4)cc3n12 (centres unmarked) [Example 156]	1000 to 10000	100 to 1000	–	–
Cc1nn(C)cc1N(Cc1ccc(OC(F)(F)F)cn1)C(=O)c1cc2c(cc1F)nc(N)c1cnc(C)n12 [Example 157]	1000 to 10000	< 100	–	–
